Assay results as given in patent US9907790B2, “Solid forms of an ASK1 inhibitor” (Gilead Sciences, Inc., priority 2014, dated 2018).
In brackets after ≈: the same amount, converted by molar mass.

Key:
Assay type in all cases: physicochemical
[1] = High humidity stress test at 75% RH/RT
[2] = Stable form screen of Compound I (suspension in solvents at RT, solids analysed by XRPD); settings: starting from Compound I Form I
Protocol: Compound I Form I was suspended with stirring in capped glass vials at RT. Samples from the suspensions were centrifuged/filtered and the isolated solids and liquids were analyzed. Solids were analyzed by XRPD and liquids were analyzed for solubility by […]. Sampling and analysis were performed after one day and greater than fourteen days.

[3] = Form change on heating, drying or exposure to ambient conditions; settings: for form change at ambient conditions: ambient temperature and humidity / storage at ambient conditions; for form change upon drying: drying (air-drying at RT)
From the text: Form V has only been truly isolated by growth of single crystals.
Isolated solids were dried with filter paper to remove residual solvents and analyzed by DSC, TGA and KF. […] (FIG. 45).
The sample was stirred for more than two months before being placed into storage without agitation and at ambient conditions. […] The material was collected by vacuum filtration and dried under ambient conditions. […] (FIG. 48).

[4] = Solubility of Compound I in EtOH; settings: ethanol, organic solvent or mixture
Protocol: The crystallization was then continued in line with Method 1 outlined above. After filtration, the Form I solids are dried in a vacuum oven at about 45-50° C.

Cc1cc(F)c(C(=O)Nc2cccc(-c3nncn3C(C)C)n2)cc1-n1cnc(C2CC2)c1.O=C(O)CO [Compound I Glycolate Form I, 5-(4-cyclopropyl-1H-imidazol-1-yl)-N-(6-(4-isopropyl-4H-1,2,4-triazol-3-yl)pyridin-2-yl)-2-fluoro-4-methylbenzamide glycolate]
deliquescence in high humidity stress test [1]: did not show any evidence of deliquescence

Cc1cc(F)c(C(=O)Nc2cccc(-c3nncn3C(C)C)n2)cc1-n1cnc(C2CC2)c1 [Compound I Form I, 5-(4-cyclopropyl-1H-imidazol-1-yl)-N-(6-(4-isopropyl-4H-1,2,4-triazol-3-yl)pyridin-2-yl)-2-fluoro-4-methylbenzamide]
14+ Day XRPD ([2]; suspended in DCM at RT): mixture of Compound I Form II and Compound I Form V
24 Hour XRPD ([2]; suspended in DCM at RT): mixture of Forms II and V

CS(=O)(=O)O.Cc1cc(F)c(C(=O)Nc2cccc(-c3nncn3C(C)C)n2)cc1-n1cnc(C2CC2)c1 [Compound I Mesylate Form I, 5-(4-cyclopropyl-1H-imidazol-1-yl)-N-(6-(4-isopropyl-4H-1,2,4-triazol-3-yl)pyridin-2-yl)-2-fluoro-4-methylbenzamide mesylate]
deliquescence in high humidity stress test [1]: did not show any evidence of deliquescence

Cc1cc(F)c(C(=O)Nc2cccc(-c3nncn3C(C)C)n2)cc1-n1cnc(C2CC2)c1 [Compound I Form VIII, 5-(4-cyclopropyl-1H-imidazol-1-yl)-N-(6-(4-isopropyl-4H-1,2,4-triazol-3-yl)pyridin-2-yl)-2-fluoro-4-methylbenzamide]
form change at ambient conditions [3]: rapidly loses water and converts to Compound I Form VI

Cc1cc(F)c(C(=O)Nc2cccc(-c3nncn3C(C)C)n2)cc1-n1cnc(C2CC2)c1.Cl [Compound I HCl Form I, 5-(4-cyclopropyl-1H-imidazol-1-yl)-N-(6-(4-isopropyl-4H-1,2,4-triazol-3-yl)pyridin-2-yl)-2-fluoro-4-methylbenzamide hydrochloride]
deliquescence in high humidity stress test [1]: did not show any evidence of deliquescence

Cc1cc(F)c(C(=O)Nc2cccc(-c3nncn3C(C)C)n2)cc1-n1cnc(C2CC2)c1 [Compound I Form V, 5-(4-cyclopropyl-1H-imidazol-1-yl)-N-(6-(4-isopropyl-4H-1,2,4-triazol-3-yl)pyridin-2-yl)-2-fluoro-4-methylbenzamide]
form change upon drying [3]: readily desolvates to Compound I Form II
form change upon drying ([3]; listed as Form V): converting to Form II

Cc1cc(F)c(C(=O)Nc2cccc(-c3nncn3C(C)C)n2)cc1-n1cnc(C2CC2)c1 [Compound I Form II, 5-(4-cyclopropyl-1H-imidazol-1-yl)-N-(6-(4-isopropyl-4H-1,2,4-triazol-3-yl)pyridin-2-yl)-2-fluoro-4-methylbenzamide]
form change after heating ([3]; heating to about 110° C.): No form change
form change after heating ([3]; heating up to about 180° C.): re-crystallizes to Compound I Form VI

Cc1cc(F)c(C(=O)Nc2cccc(-c3nncn3C(C)C)n2)cc1-n1cnc(C2CC2)c1.O=C(O)/C=C/C(=O)O [Compound I Fumarate Form I, 5-(4-cyclopropyl-1H-imidazol-1-yl)-N-(6-(4-isopropyl-4H-1,2,4-triazol-3-yl)pyridin-2-yl)-2-fluoro-4-methylbenzamide fumarate]
deliquescence in high humidity stress test [1]: did not show any evidence of deliquescence

Cc1cc(F)c(C(=O)Nc2cccc(-c3nncn3C(C)C)n2)cc1-n1cnc(C2CC2)c1.O=S(=O)(O)O [Compound I Sulfate Form I, 5-(4-cyclopropyl-1H-imidazol-1-yl)-N-(6-(4-isopropyl-4H-1,2,4-triazol-3-yl)pyridin-2-yl)-2-fluoro-4-methylbenzamide sulfate]
deliquescence in high humidity stress test [1]: did not show any evidence of deliquescence

Cc1cc(F)c(C(=O)Nc2cccc(-c3nncn3C(C)C)n2)cc1-n1cnc(C2CC2)c1.O=C(O)C(O)C(O)C(=O)O [Compound I L-Tartrate Form I, 5-(4-cyclopropyl-1H-imidazol-1-yl)-N-(6-(4-isopropyl-4H-1,2,4-triazol-3-yl)pyridin-2-yl)-2-fluoro-4-methylbenzamide L-tartrate]
deliquescence in high humidity stress test [1]: did not show any evidence of deliquescence

5-(4-cyclopropyl-1H-imidazol-1-yl)-N-(6-(4-isopropyl-4H-1,2,4-triazol-3-yl)pyridin-2-yl)-2-fluoro-4-methylbenzamide gentisate [Compound I Gentisate Form II]
deliquescence in high humidity stress test [1]: did not show any evidence of deliquescence

Cc1cc(F)c(C(=O)Nc2cccc(-c3nncn3C(C)C)n2)cc1-n1cnc(C2CC2)c1.O=C(O)/C=C\C(=O)O [Compound I Maleate Form I, 5-(4-cyclopropyl-1H-imidazol-1-yl)-N-(6-(4-isopropyl-4H-1,2,4-triazol-3-yl)pyridin-2-yl)-2-fluoro-4-methylbenzamide maleate]
deliquescence in high humidity stress test [1]: did not show any evidence of deliquescence

5-(4-cyclopropyl-1H-imidazol-1-yl)-N-(6-(4-isopropyl-4H-1,2,4-triazol-3-yl)pyridin-2-yl)-2-fluoro-4-methylbenzamide propyl gallate [Compound I Propyl Gallate Form I]
deliquescence in high humidity stress test [1]: did not show any evidence of deliquescence

5-(4-cyclopropyl-1H-imidazol-1-yl)-N-(6-(4-isopropyl-4H-1,2,4-triazol-3-yl)pyridin-2-yl)-2-fluoro-4-methylbenzamide edisylate [Compound I Edisylate Form I]
deliquescence in high humidity stress test [1]: did not show any evidence of deliquescence

Cc1cc(F)c(C(=O)Nc2cccc(-c3nncn3C(C)C)n2)cc1-n1cnc(C2CC2)c1 [Compound I, 5-(4-cyclopropyl-1H-imidazol-1-yl)-N-(6-(4-isopropyl-4H-1,2,4-triazol-3-yl)pyridin-2-yl)-2-fluoro-4-methylbenzamide]
solubility [4]: ~20 mg/mL (≈ 44.9 mM)
14+ Day XRPD ([2]; suspended in 2-propanol at RT): Form I
24 Hour XRPD ([2]; suspended in 2-propanol at RT): Form I
14+ Day XRPD ([2]; suspended in ACN at RT): Form I
24 Hour XRPD ([2]; suspended in ACN at RT): Form I
24 Hour XRPD ([2]; suspended in DCM at RT): V, II
14+ Day XRPD ([2]; suspended in EtOAc at RT): Form I
24 Hour XRPD ([2]; suspended in EtOAc at RT): Form I
14+ Day XRPD ([2]; suspended in Ethanol at RT): Form I
24 Hour XRPD ([2]; suspended in Ethanol at RT): Form I
14+ Day XRPD ([2]; suspended in IPAC at RT): Form I
24 Hour XRPD ([2]; suspended in IPAC at RT): Form I
14+ Day XRPD ([2]; suspended in MTBE at RT): Form I
24 Hour XRPD ([2]; suspended in MTBE at RT): Form I
14+ Day XRPD ([2]; suspended in THF at RT): Form I
24 Hour XRPD ([2]; suspended in THF at RT): Form I
14+ Day XRPD ([2]; suspended in acetone at RT): Form I
24 Hour XRPD ([2]; suspended in acetone at RT): Form I
14+ Day XRPD ([2]; suspended in methanol at RT): Form I
24 Hour XRPD ([2]; suspended in methanol at RT): Form I
14+ Day XRPD ([2]; suspended in n-heptane at RT): Form I
24 Hour XRPD ([2]; suspended in n-heptane at RT): Form I
14+ Day XRPD ([2]; suspended in water at RT): Form I
24 Hour XRPD ([2]; suspended in water at RT): Form I

5-(4-cyclopropyl-1H-imidazol-1-yl)-N-(6-(4-isopropyl-4H-1,2,4-triazol-3-yl)pyridin-2-yl)-2-fluoro-4-methylbenzamide glutarate [Compound I Glutarate Form I]
deliquescence in high humidity stress test [1]: did not show any evidence of deliquescence

Cc1cc(F)c(C(=O)Nc2cccc(-c3nncn3C(C)C)n2)cc1-n1cnc(C2CC2)c1 [Compound I Form IX, 5-(4-cyclopropyl-1H-imidazol-1-yl)-N-(6-(4-isopropyl-4H-1,2,4-triazol-3-yl)pyridin-2-yl)-2-fluoro-4-methylbenzamide]
form change at ambient conditions [3]: converts to Form I

Cc1cc(F)c(C(=O)Nc2cccc(-c3nncn3C(C)C)n2)cc1-n1cnc(C2CC2)c1.O=C(O)C(=O)O [Compound I Oxalate Form I, 5-(4-cyclopropyl-1H-imidazol-1-yl)-N-(6-(4-isopropyl-4H-1,2,4-triazol-3-yl)pyridin-2-yl)-2-fluoro-4-methylbenzamide oxalate]
deliquescence in high humidity stress test [1]: did not show any evidence of deliquescence

CCS(=O)(=O)O.Cc1cc(F)c(C(=O)Nc2cccc(-c3nncn3C(C)C)n2)cc1-n1cnc(C2CC2)c1 [Compound I Esylate Form I, 5-(4-cyclopropyl-1H-imidazol-1-yl)-N-(6-(4-isopropyl-4H-1,2,4-triazol-3-yl)pyridin-2-yl)-2-fluoro-4-methylbenzamide esylate]
deliquescence in high humidity stress test [1]: did not show any evidence of deliquescence

Cc1cc(F)c(C(=O)Nc2cccc(-c3nncn3C(C)C)n2)cc1-n1cnc(C2CC2)c1.O=C(O)CCC(=O)O [Compound I Succinate Form I, 5-(4-cyclopropyl-1H-imidazol-1-yl)-N-(6-(4-isopropyl-4H-1,2,4-triazol-3-yl)pyridin-2-yl)-2-fluoro-4-methylbenzamide succinate]
deliquescence in high humidity stress test [1]: did not show any evidence of deliquescence

Cc1cc(F)c(C(=O)Nc2cccc(-c3nncn3C(C)C)n2)cc1-n1cnc(C2CC2)c1.Cc1ccc(S(=O)(=O)O)cc1 [Compound I Tosylate Form I, 5-(4-cyclopropyl-1H-imidazol-1-yl)-N-(6-(4-isopropyl-4H-1,2,4-triazol-3-yl)pyridin-2-yl)-2-fluoro-4-methylbenzamide tosylate]
deliquescence in high humidity stress test [1]: did not show any evidence of deliquescence
